Several values for one entry are separate records, joined by “and”; a condition that tells them apart may be missing. Identical values can stand only once.
Columns and labels:
[1] = Clinical plasma pharmacokinetics in patients with advanced breast cancer; assay type: in vivo, human; details: for Tmax: po, 20 mg
NOTCH1 = assay: In vitro Notch cellular assay; assay type: cell-based, human
in vitro = details: human, human plasma, pH 7.2
[2] = biological target: human α1-acid glycoprotein (AAG) (Homo sapiens, UniProt P02763); assay: Equilibrium dialysis, binding in isolated AAG solution; details: for mean Fu: total drug 500 ng/mL (1,065 nmol/L); for RO4929097 fraction unbound estimated from Equation (A): nK 1.0 × 10^6 L/mol; for maximum binding concentration (nP) of AAG: estimate ± SE
plasma proteins [3] = test system: plasma proteins
plasma proteins [4] = test system: plasma proteins; remark: listed apart in the source
AAG = details: cited from earlier work
HSA = HSA (Homo sapiens, UniProt P02768); assay: Equilibrium dialysis; assay type: binding
[5] = daily oral 150 mg/d in patients with cancer; cited from earlier work
[6] = given alone, 20 mg orally, median (interquartile range), n = 8
[7] = single oral dose of 20 mg in 8 patients
[8] = Homo sapiens, U2OS, 24 h, read-out: inhibition of cellular Notch activity

Chain of human α1-acid glycoprotein (AAG) (P02763 19-201): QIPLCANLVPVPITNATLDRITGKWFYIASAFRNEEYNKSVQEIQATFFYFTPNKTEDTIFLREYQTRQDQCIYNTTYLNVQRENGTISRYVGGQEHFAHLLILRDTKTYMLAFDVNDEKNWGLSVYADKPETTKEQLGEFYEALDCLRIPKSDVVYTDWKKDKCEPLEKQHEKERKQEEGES
Chain of HSA (P02768 25-609): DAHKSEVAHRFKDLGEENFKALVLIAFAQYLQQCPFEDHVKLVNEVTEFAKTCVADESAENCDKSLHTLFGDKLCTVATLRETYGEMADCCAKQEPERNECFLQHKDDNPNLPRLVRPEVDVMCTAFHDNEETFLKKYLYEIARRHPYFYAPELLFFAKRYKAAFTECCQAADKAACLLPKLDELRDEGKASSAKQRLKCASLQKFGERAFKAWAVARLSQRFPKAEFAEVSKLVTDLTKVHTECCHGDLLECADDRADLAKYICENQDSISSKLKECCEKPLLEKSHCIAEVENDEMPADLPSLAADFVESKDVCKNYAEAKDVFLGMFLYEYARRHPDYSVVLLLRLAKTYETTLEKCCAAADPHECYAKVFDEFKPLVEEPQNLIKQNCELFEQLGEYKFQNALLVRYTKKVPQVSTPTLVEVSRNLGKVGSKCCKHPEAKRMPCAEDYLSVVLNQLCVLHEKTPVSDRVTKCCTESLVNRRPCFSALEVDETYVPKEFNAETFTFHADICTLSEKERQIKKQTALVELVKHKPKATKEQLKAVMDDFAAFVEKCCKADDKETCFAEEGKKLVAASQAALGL

## CC(C)(C(=O)NCC(F)(F)C(F)(F)F)C(=O)N[C@@H]1C(=O)Nc2ccccc2-c2ccccc21 [RO4929097]
[1]; co-administered with GDC-0449
  Decrease in average systemic exposure to total RO4929097: 8.3 fold
  Decrease in average unbound RO4929097 exposure: 1.7 fold
[1]; [6]
  Unbound RO4929097 AUC0–24h: 52.8 (33.2–64.9) nmol/L h
  Unbound RO4929097 Cmax: 4.3 (2.7–5.6) nmol/L
[1]; human, plasma, oral, Total RO4929097 AUC0–24h, in combination with GDC-0449 150 mg orally, median (interquartile range), n = 8
  AUC(0-t): 0.723 µM·h
[1]; human, plasma, Total RO4929097 Tmax, given alone, 20 mg orally, median (interquartile range), n = 8
  Tmax: 2.5 h
[1]; human, plasma, Unbound RO4929097 Tmax, given alone, 20 mg orally, median (interquartile range), n = 8
  Tmax: 1.5 h
[1]; single oral dose of 20 mg
  Interindividual variability of total RO4929097 AUC0-24h (max/min): 16 fold and up to 16 fold
  Interindividual variability of total RO4929097 Cmax (max/min): 15 fold
  Interindividual variability of unbound RO4929097 AUC0-24h (max/min): 4 fold
  Interindividual variability of unbound RO4929097 Cmax (max/min): 3 fold
  Unbound RO4929097 AUC0-24h, range among patients: 28.1 to 113.0 nmol·h/L
  Unbound RO4929097 Cmax, range among patients: 1.9 to 6.1 nmol/L
[1]; [7]
  Coefficient variation of AUC0-24h, total RO4929097: 99%
  Coefficient variation of AUC0-24h, unbound RO4929097: 49%
NOTCH1; AAG 0.5, 1.4, […], total RO4929097 500 and 5,000 nmol/L
  RO4929097 Notch-inhibitory activity in presence of AAG: significantly reduced
NOTCH1; [8]
  inhibition at 0.05 µM: 2.1%
  inhibition at 0.5 µM: 62%
  inhibition at 5 µM: 73%
NOTCH1; Homo sapiens, U2OS, read-out: unbound RO4929097 concentration for 50% inhibition of the maximum Notch activity (IC50)
  IC50: 109 nM
In vitro
  fraction unbound at 24 h: 0.047
[2]; AAG 0.2 mg/mL
  mean Fu: 19.0%
[2]; AAG 0.5 mg/mL
  RO4929097 fraction unbound estimated from Equation (A): 8%
[2]; AAG 1.4 mg/mL, Equation (C), GDC-0449 0 μmol/L
  maximum binding concentration (nP) of AAG: 23.1 µmol/L and 23.1 ± 0.9 µmol/L
[2]; AAG 1.4 mg/mL, GDC-0449 5 μmol/L
  maximum binding concentration (nP) of AAG: 25.3 ± 1.1 µmol/L
[2]; AAG 1.4 mg/mL, GDC-0449 25 μmol/L
  maximum binding concentration (nP) of AAG: 34.9 ± 2.0 µmol/L
[2]; AAG 1.4 mg/mL
  RO4929097 fraction unbound estimated from Equation (A): 3%
[2]; AAG […]
  mean Fu: 1.1%
[2]; Equation (A), Fu versus protein concentration, nonlinear regression
  total binding constant (nK) for AAG: 1e+06 L/mol and 1.1e+06 L/mol
Plasma proteins [3]; during the treatment in individual patient
  intraindividual variability in RO4929097 fraction unbound: up to 5 fold
Plasma proteins [3]; patients, alone or in combination with GDC-0449
  interindividual variability in RO4929097 fraction unbound: up to 10 fold
Plasma proteins [4]
  bound in human plasma: > 97%

## Cc1ccc(NC(=O)c2ccc(CN3CCN(C)CC3)cc2)cc1Nc1nccc(-c2cccnc2)n1 [imatinib]
AAG
  binding affinity for AAG (Ka): 1.7e+06 L/mol

## CC(C)(C(=O)NCC(F)(F)C(F)(F)F)C(=O)N[C@@H]1C(=O)Nc2ccccc2-c2ccccc21 [RO4929097, RO4929097 (γ-secretase inhibitor)]
HSA
  Kd: 90.9 µM

## CS(=O)(=O)c1ccc(C(=O)Nc2ccc(Cl)c(-c3ccccn3)c2)c(Cl)c1 [GDC-0449]
AAG; read-out: Kd for AAG, in vitro equilibrium dialysis
  Kd: 1500 nM
[5]
  average steady-state plasma concentration of total GDC-0449: approximately 25 μmol/L
  unbound drug levels as % of the total drug: less than 1%

Source: PMC3856649 (Clinical cancer research : an official journal of the …, 2012)
